Data reported in ChEMBL document CHEMBL3137386, “DNDi T. cruzi fenarimol series dataset from which preclinical candidate EPL-BS1246 was identified (see also related datasets CHEMBL2448688 and CHEMBL3137440)”.
Values after ≈ are worked out from the molar mass of the structure shown. Values joined by “and” are separate entries in the source; they are usually repeats but may differ in a detail not shown here. Equal values may be shown once. Each block holds one molecule with its values, some of them ahead of it.

What was measured:
[1] = system: Trypanosoma brucei rhodesiense; assay: DNDI: HAT in vitro; assay type: functional, organism-based; conditions: ATCC 30027
[2] = system: Trypanosoma cruzi; assay: (§1) DNDI: Chagas in vitro; assay type: functional, Tulahuen C4 (LacZ)
[3] = (§2) DNDI: Cytotoxicity against L-6 rat myoblasts from skeletal muscle; assay type: toxicity, cell-based, Muscle tissue, L6; conditions: rat, L6 rat skeletal muscle myoblasts
[4] = system: Trypanosoma cruzi; assay: as §1; assay type: functional, organism-based, Tulahuen C4 (LacZ)
[5] = (§3) DNDI: Metabolism; assay type: ADME, Microsome; conditions: human, microsomes; for hepatic extraction ratio: read-out: EH
[6] = DNDI: Lipophilicity (gLogD) at pH 3; assay type: physicochemical; conditions: buffer
[7] = DNDI: Solubility in phosphate buffer at pH 6.5 determined by nephelometry; assay type: physicochemical
[8] = DNDI: Lipophilicity (gLogD) at pH 7.4; assay type: physicochemical; conditions: buffer
[9] = target: T1, Cytochrome P450 3A4 (Homo sapiens, UniProt P08684); assay: (§4) DNDI: CYP Inhibition; assay type: ADME
T1 sequence (P08684 whole entry): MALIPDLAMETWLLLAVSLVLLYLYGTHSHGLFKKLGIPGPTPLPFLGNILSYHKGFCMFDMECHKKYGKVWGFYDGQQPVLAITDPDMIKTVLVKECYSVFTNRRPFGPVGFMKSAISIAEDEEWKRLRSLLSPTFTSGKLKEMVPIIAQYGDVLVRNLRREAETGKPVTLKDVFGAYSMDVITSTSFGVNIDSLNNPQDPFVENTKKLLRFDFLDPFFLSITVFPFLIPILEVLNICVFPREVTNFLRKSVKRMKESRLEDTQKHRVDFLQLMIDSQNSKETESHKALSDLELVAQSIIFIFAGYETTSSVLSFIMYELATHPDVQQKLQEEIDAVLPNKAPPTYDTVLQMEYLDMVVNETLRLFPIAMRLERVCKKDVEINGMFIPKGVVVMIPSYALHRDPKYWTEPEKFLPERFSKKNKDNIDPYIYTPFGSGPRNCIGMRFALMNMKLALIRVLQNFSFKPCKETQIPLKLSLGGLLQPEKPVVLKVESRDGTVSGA

[10] = DNDI: Solubility in 0.01M HCl at pH 2 determined by nephelometry; assay type: physicochemical; conditions: 0.01 M HCl
[11] = target: T1, Cytochrome P450 3A4; assay: as §4; assay type: ADME; remark: listed apart in the source
[12] = DNDI: Lipophilicity (s.f. LogD) at pH 5; assay type: physicochemical; conditions: buffer
[13] = DNDI: Solubility, 24 hour, FaSSIF buffer - pH 6.5. 37C; assay type: physicochemical; conditions: read-out: Equilibrium
[14] = as §3; assay type: ADME, 10090, Microsome; conditions: mouse, microsomes
[15] = DNDI: Protein binding in human plasma; assay type: ADME; conditions: read-out: % bound (converted)
[16] = DNDI: Solubility, 24 hour, FaSSIF buffer - pH 5.8, 37C; assay type: physicochemical; conditions: read-out: Equilibrium
[17] = DNDI: pKa; assay type: physicochemical
[18] = as §3; assay type: ADME, Canis lupus familiaris, 9615, Microsome; conditions: dog, microsomes
[19] = DNDI: Lipophilicity (s.f. LogD) at pH 7.4; assay type: physicochemical; conditions: buffer
[20] = (§5) DNDI: Solubility, 24 hour, Isotonic phos buffer - pH 2; assay type: physicochemical; conditions: isotonic phosphate buffer, read-out: Equilibrium
[21] = DNDI: Solubility, 24 hour, SGF - pH 1, 37C; assay type: physicochemical; conditions: read-out: Equilibrium
[22] = DNDI: Protein binding in human liver microsomes; assay type: ADME; conditions: read-out: % bound (converted)
[23] = DNDI: Protein binding 10% serum RPMI; assay type: ADME; conditions: RPMI with 10% serum; read-out: % bound (converted)
[24] = as §3; assay type: ADME, 10116, Microsome; conditions: rat, microsomes
[25] = as §5; assay type: physicochemical; conditions: isotonic phosphate buffer, read-out: Equilibrium; remark: listed apart in the source
[26] = (§6) DNDI: Solubility, 24 hour, FaSSIF, 37C; assay type: physicochemical; conditions: read-out: Equilibrium
[27] = DNDI: Protein binding in rat plasma; assay type: ADME, 10116; conditions: read-out: % bound (converted)
[28] = target: T1, Cytochrome P450 3A4; assay: as §4; assay type: ADME; remark: listed apart in the source
[29] = DNDI: Lipophilicity (s.f. LogD) at pH 2; assay type: physicochemical; conditions: buffer
[30] = system: L6; assay: as §2; assay type: toxicity, cell-based, Muscle tissue; conditions: l6
[31] = as §6; assay type: physicochemical; conditions: read-out: Equilibrium; remark: listed apart in the source
[32] = DNDI: Protein binding in mouse plasma; assay type: ADME, 10090; conditions: read-out: % bound (converted)
[33] = DNDI: Protein binding in dog plasma; assay type: ADME, Canis lupus familiaris, 9615; conditions: read-out: % bound (converted)
[34] = DNDI: Lipophilicity (s.f. LogD water); assay type: physicochemical
[35] = target: T1, Cytochrome P450 3A4; assay: as §4; assay type: ADME; remark: listed apart in the source
[36] = Trypanosoma cruzi, Tulahuen C4 (LacZ)

Compound: O=C(C(c1ccc(Cl)cc1)c1cccnc1)N1CCN(c2ccc(C(F)(F)F)nc2)CC1 (configuration not stated)
- IC50 [1]: > 10000 nM
- Clint [5]: 36 µL/min/mg and 61 µL/min/mg
- EH [5]: 0.77 and 0.7
- half-life [5]: 41 min
- microsomal CLint [5]: 42 µL/min/mg
- t (1 / 2) [5]: 49 min and 28 min
- hepatic extraction ratio [5]: 0.67
- chromatographic logD [6]: 3.2
- IC90 [2]: > 100 nM and 1030 nM
- IC50 [11]: 20000 nM
- IC50 [3]: 66800 nM
- IC50 [9]: > 20000 nM
- solubility kinetic [10]: > 100 µg/mL

Compound: O=C(c1ccccc1)N1CCN(C(=O)C(c2ccc(Cl)cc2)c2cccnc2)CC1 (configuration not stated)
- IC50 [1]: > 10000 nM
- IC90 [2, 36]: > 100 nM
- IC50 [3]: > 100000 nM
- IC50 [4, 36]: 49.5 nM

Compound: O=C(c1ccc(Cl)cc1)N1CCN(C(=O)C(c2ccc(Cl)cc2)c2cccnc2)CC1 (configuration not stated)
- IC50 [1]: > 10000 nM
- IC90 [2, 36]: > 100 nM
- IC50 [3]: > 100000 nM
- IC50 [4, 36]: 22 nM

Compound: O=C(C(c1ccc(Cl)cc1)c1cncnc1)N1CCN(c2ccc(C(F)(F)F)nc2)CC1 (configuration not stated)
- IC50 [1]: > 10000 nM
- half-life [5]: 31 min
- microsomal CLint [5]: 56 µL/min/mg
- hepatic extraction ratio [5]: 0.76
- chromatographic logD [6]: 3.4
- solubility kinetic [7]: 12.5 µg/mL (≈ 27.1 µM)
- chromatographic logD [8]: 3.3
- IC90 [2, 36]: > 100 nM
- IC50 [3]: > 100000 nM
- IC50 [4, 36]: 252 nM
- IC50 [9]: > 20000 nM
- solubility kinetic [10]: 12.5 µg/mL (≈ 27.1 µM)

Compound: O=S(=O)(Cc1ccccc1)Nc1cnccc1N1CCN(c2ccc(C(F)(F)F)cc2)CC1
- IC50 [1]: > 10000 nM
- IC90 [2, 36]: 29 nM
- IC50 [3]: > 100000 nM
- IC50 [4, 36]: 18 nM

Compound: O=C(C(c1ccc(Cl)cc1)c1cccnc1)N1CCN(c2ccc(C(F)(F)F)cc2)CC1 (configuration not stated)
- IC50 [1]: > 10000 nM
- logD [12]: 5.47
- solubility thermodynamic at 24 h [13]: < 1 µg/mL
- half-life [14]: 30 min
- microsomal CLint [14]: 59 µL/min/mg
- hepatic extraction ratio ([14]; read-out: EH): 0.72
- fraction unbound [15]: 0.025
- half-life [5]: 85 min
- microsomal CLint [5]: 20 µL/min/mg
- hepatic extraction ratio [5]: 0.53
- solubility thermodynamic at 24 h [16]: < 1 µg/mL
- pKa [17]: 2.62
- half-life [18]: 130 min
- microsomal CLint [18]: 13 µL/min/mg
- hepatic extraction ratio ([18]; read-out: EH): 0.38
- logD [19]: 5.54
- chromatographic logD [6]: 4.1
- solubility thermodynamic at 24 h [20]: 127 µg/mL (≈ 276 µM)
- solubility thermodynamic at 24 h [21]: 1500 µg/mL (≈ 3260 µM)
- fraction unbound [22]: 0.023
- fraction unbound [23]: 0.076
- half-life [24]: 46 min
- microsomal CLint [24]: 38 µL/min/mg
- hepatic extraction ratio ([24]; read-out: EH): 0.55
- solubility thermodynamic at 24 h [25]: < 1 µg/mL
- solubility thermodynamic at 24 h [26]: 75.9 µg/mL (≈ 165 µM)
- chromatographic logD [8]: 4.5
- IC90 [2]: 10 nM and 47.5 nM
- fraction unbound [27]: 0.027
- IC50 [28]: 1200 nM
- logD [29]: 2.71
- IC50 [11]: 20000 nM
- IC50 [3]: 37700 nM
- IC50 [30]: 42400 nM
- IC50 [4]: 7 nM
- IC50 [4, 36]: 10 nM
- solubility thermodynamic at 24 h [31]: 1.3 µg/mL (≈ 2.83 µM)
- fraction unbound [32]: 0.014
- fraction unbound [33]: 0.012
- solubility kinetic [10]: > 100 µg/mL
- logD [34]: 5.44
- IC50 [35]: 7400 nM

Continued, in another order:

- IC50 [1]: > 10000 nM
- IC90 [2, 36]: > 100 nM
- IC50 [4, 36]: 51 nM
Compound: O=C(C(c1ccc(Cl)cc1)c1cccnc1)N1CCN(c2nccs2)CC1 (configuration not stated)
- IC50 [3]: > 100000 nM

- IC50 [1]: > 10000 nM
- IC90 [2, 36]: > 100 nM
- IC50 [4, 36]: 65 nM
Compound: CC(C)CN1CCN(C(=O)C(c2ccc(Cl)cc2)c2cccnc2)CC1 (configuration not stated)
- IC50 [3]: > 100000 nM

- IC50 [1]: > 10000 nM
- Clint [5]: 22 µL/min/mg and 21 µL/min/mg
- EH [5]: 0.56 and 0.54
- half-life [5]: 144 min
- microsomal CLint [5]: 12 µL/min/mg
- t (1 / 2) [5]: 77 min and 81 min
- hepatic extraction ratio [5]: 0.4
- chromatographic logD [6]: 2.5
- solubility kinetic [7]: 12.5 µg/mL (≈ 27.7 µM)
- chromatographic logD [8]: 3
- IC90 [2]: 81.5 nM
- IC90 [2, 36]: > 100 nM
- IC50 [4]: 55 nM and > 100 nM and 20.5 nM
- IC50 [9]: > 20000 nM
- solubility kinetic [10]: > 100 µg/mL
Compound: N#Cc1ccc(C(C(=O)N2CCN(c3ccc(C(F)(F)F)nc3)CC2)c2cccnc2)cc1 (configuration not stated)
- IC50 [3]: > 100000 nM

- IC50 [1]: > 10000 nM
- IC90 [2, 36]: > 100 nM
- IC50 [4, 36]: > 100 nM
Compound: COCCN1CCN(C(=O)C(c2ccc(Cl)cc2)c2cccnc2)CC1 (configuration not stated)
- IC50 [3]: > 100000 nM
